From PubChem BioAssay AID248 (DTP/NCI, 2004)
Where “and” joins values, the source holds several entries; their conditions need not be identical. Equal values may be shown once. Toxic doses and inconclusive results are not listed. No stated cut-off is given here; in the data, active means T/C of 150% or more; inactive means T/C below 125%. Square brackets hold non-standard residues; d marks the D form. Peptide text beside a SMILES is read from it. * marks the point of attachment. ONb = O=[N+]([O-])c1ccc(CO*)cc1; Cbz = O=C(OCc1ccccc1)*; Nva = CCC[CH](N)C(=O)O; Bn = c1ccc(C*)cc1

System: L1210 leukemia ip in BDF1 mice, survival T/C
Assay: NCI In Vivo Anticancer Drug Screen. Data for tumor model L1210 Leukemia (intraperitoneal) in B6D2F1 (BDF1) mice
Details: endpoint: mean survival time, higher = longer survival
In short: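 Mice bearing the transplanted tumor received compound or vehicle. Survival of the treated group was divided by that of the vehicle-treated control group to give the ratio.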

[1] = dose: 100.0 mg/kg/injection, schedule: Q01DX001 (ip), vehicle: other
[2] = dose: 200.0 mg/kg/injection, schedule: Q01DX001 (ip), vehicle: other
[3] = dose: 50.0 mg/kg/injection, schedule: Q04DX003 (ip), vehicle: saline
[4] = dose: 100.0 mg/kg/injection, schedule: Q04DX003 (ip), vehicle: saline with Tween-80
[5] = dose: 100.0 mg/kg/injection, schedule: Q04DX003 (ip), vehicle: saline
[6] = dose: 200.0 mg/kg/injection, schedule: Q04DX003 (ip), vehicle: saline with Tween-80
[7] = dose: 50.0 mg/kg/injection, schedule: Q01DX009 (ip), vehicle: saline with Tween-80
[8] = dose: 100.0 mg/kg/injection, schedule: Q01DX009 (ip), vehicle: saline with Tween-80
[9] = dose: 100.0 mg/kg/injection, schedule: Q04DX002 (ip), vehicle: Klucel (hydroxypropylcellulose) (HPC)
[10] = dose: 200.0 mg/kg/injection, schedule: Q04DX002 (ip), vehicle: Klucel (hydroxypropylcellulose) (HPC)
[11] = dose: 400.0 mg/kg/injection, schedule: Q04DX002 (ip), vehicle: Klucel (hydroxypropylcellulose) (HPC)
[12] = dose: 50.0 mg/kg/injection, schedule: Q01DX001 (ip), vehicle: saline
[13] = dose: 100.0 mg/kg/injection, schedule: Q01DX001 (ip), vehicle: saline
[14] = dose: 200.0 mg/kg/injection, schedule: Q01DX001 (ip), vehicle: saline
[15] = dose: 400.0 mg/kg/injection, schedule: Q01DX001 (ip), vehicle: saline
[16] = dose: 200.0 mg/kg/injection, schedule: Q04DX003 (ip), vehicle: saline
[17] = dose: 100.0 mg/kg/injection, schedule: Q04DX003 (ip), vehicle: Klucel (hydroxypropylcellulose) (HPC)

Measured: T/C

CCCC(NC(=O)C(CSCc1ccccc1)NC(=O)OCc1ccccc1)C(=O)OCc1ccc([N+](=O)[O-])cc1 (stereo unspecified) (Cbz-Cys(Bn)-[Nva]-ONb; configuration not given here)
inactive: [1] 90 % of control | [2] 90 % of control | dose: 400.0 mg/kg/injection, schedule: Q01DX001 (ip), vehicle: other 89 % of control

O=C(C1C2C=CC(C2)C1C(=O)N1CCCCC1)N1CCCCC1 (stereo unspecified)
inactive: dose: 25.0 mg/kg/injection, schedule: Q04DX003 (ip), vehicle: saline 103 % of control | [3] 95 % of control | [4] 111 % of control | [5] 98 % of control | [6] 86 % of control

O=C(COc1ccc(Cl)cc1Cl)Nc1ccc(F)cc1
inactive: dose: 25.0 mg/kg/injection, schedule: Q01DX009 (ip), vehicle: saline with Tween-80 93 % of control | [7] 91 % of control | [8] 104 % of control and 88 % of control

COc1ccc(C=O)cc1OCc1ccccc1
inactive: dose: 100.0 mg/kg/injection, schedule: Q01DX009 (ip), vehicle: water 96 % of control | dose: 100.0 mg/kg/injection, schedule: Q04DX003 (ip), vehicle: water 100 % of control | dose: 200.0 mg/kg/injection, schedule: Q01DX009 (ip), vehicle: water 96 % of control | dose: 200.0 mg/kg/injection, schedule: Q04DX003 (ip), vehicle: water 96 % of control | dose: 400.0 mg/kg/injection, schedule: Q01DX009 (ip), vehicle: water 102 % of control | dose: 400.0 mg/kg/injection, schedule: Q04DX003 (ip), vehicle: water 100 % of control

CSc1ccc(B2Oc3cc(Cl)c(Cl)cc3O2)cc1
inactive: dose: 100.0 mg/kg/injection, schedule: Q04DX003 (ip), vehicle: alcohol 124 % of control | dose: 200.0 mg/kg/injection, schedule: Q04DX003 (ip), vehicle: alcohol 95 % of control | dose: 400.0 mg/kg/injection, schedule: Q04DX003 (ip), vehicle: alcohol 100 % of control

CCOC(=O)C(C)N1C(=O)c2ccccc2C1=O (stereo unspecified)
inactive: [9] 100 % of control | [10] 104 % of control | [11] 100 % of control

CCC(=O)c1ccc(-c2ccccc2)cc1
inactive: dose: 175.0 mg/kg/injection, schedule: Q04DX002 (ip), vehicle: Klucel (hydroxypropylcellulose) (HPC) 102 % of control | dose: 350.0 mg/kg/injection, schedule: Q04DX002 (ip), vehicle: Klucel (hydroxypropylcellulose) (HPC) 98 % of control

CC(Cc1cc(C)nc(NC#N)n1)=Nc1ccccc1
inactive: [9] 100 % of control | [10] 92 % of control | [11] 100 % of control

Nc1ncnc2c1ncn2C(/C=N/Nc1ccccc1)OC(/C=N\Nc1ccccc1)CO (stereo unspecified)
inactive: [1] 106 % of control | [2] 108 % of control

O=C1CCC2c3ccccc3C(=O)C2C1 (stereo unspecified)
inactive: dose: 50.0 mg/kg/injection, schedule: Q01DX009 (ip), vehicle: Klucel (hydroxypropylcellulose) (HPC) 100 % of control | dose: 100.0 mg/kg/injection, schedule: Q01DX009 (ip), vehicle: Klucel (hydroxypropylcellulose) (HPC) 100 % of control | dose: 200.0 mg/kg/injection, schedule: Q01DX009 (ip), vehicle: Klucel (hydroxypropylcellulose) (HPC) 98 % of control

COc1ccn(C2CCCO2)c(=O)n1 (stereo unspecified)
inactive: [12] 101 % of control | [13] 101 % of control | [14] 104 % of control | [15] 104 % of control

CC(=O)C(C)(NCc1ccccc1)c1ccccc1 (stereo unspecified)
inactive: [3] 97 % of control | dose: 100.0 mg/kg/injection, schedule: Q04DX003 (ip), vehicle: other 95 % of control | [5] 97 % of control | dose: 200.0 mg/kg/injection, schedule: Q04DX003 (ip), vehicle: other 93 % of control | [16] 102 % of control | dose: 400.0 mg/kg/injection, schedule: Q04DX003 (ip), vehicle: other 87 % of control

O=[N+]([O-])c1ccc(NCc2ccccc2)c2c1no[n+]2[O-]
inactive: dose: 37.5 mg/kg/injection, schedule: Q04DX003 (ip), vehicle: saline with Tween-80 100 % of control | dose: 75.0 mg/kg/injection, schedule: Q04DX003 (ip), vehicle: saline with Tween-80 106 % of control | dose: 150.0 mg/kg/injection, schedule: Q04DX003 (ip), vehicle: saline with Tween-80 100 % of control

CS(=O)(=O)O/C=C(\C#N)C(=O)O
inactive: dose: 100.0 mg/kg/injection, schedule: Q01DX001 (ip), vehicle: carboxymethylcellulose (CMC) 103 % of control | dose: 200.0 mg/kg/injection, schedule: Q01DX001 (ip), vehicle: carboxymethylcellulose (CMC) 106 % of control

C=C(C)Cc1c(C)c(Cl)cc(Cl)c1O
inactive: [12] 103 % of control | [13] 103 % of control

Sc1ccccc1-n1c(-c2ccccc2)ccc1-c1ccccc1
inactive: [12] 96 % of control | [13] 93 % of control | [14] 98 % of control | [15] 87 % of control

CCNCc1cc(Nc2cc(C)nc(/N=C(\N)Nc3ccc(Cl)c(Cl)c3)n2)ccc1OC
inactive: dose: 3.12 mg/kg/injection, schedule: Q01DX009 (ip), vehicle: Klucel (hydroxypropylcellulose) (HPC) 94 % of control | dose: 6.25 mg/kg/injection, schedule: Q01DX009 (ip), vehicle: Klucel (hydroxypropylcellulose) (HPC) 103 % of control | dose: 12.5 mg/kg/injection, schedule: Q01DX009 (ip), vehicle: Klucel (hydroxypropylcellulose) (HPC) 97 % of control | dose: 25.0 mg/kg/injection, schedule: Q04DX003 (ip), vehicle: Klucel (hydroxypropylcellulose) (HPC) 101 % of control | dose: 50.0 mg/kg/injection, schedule: Q04DX003 (ip), vehicle: Klucel (hydroxypropylcellulose) (HPC) 111 % of control | dose: 75.0 mg/kg/injection, schedule: Q01DX001 (ip), vehicle: other 97 % of control | [17] 95 % of control

O=S1(=O)CC2(N3CCCC3)CCCCC21 (stereo unspecified)
inactive: dose: 75.0 mg/kg/injection, schedule: Q01DX001 (ip), vehicle: saline 98 % of control | dose: 150.0 mg/kg/injection, schedule: Q01DX001 (ip), vehicle: saline 100 % of control | dose: 300.0 mg/kg/injection, schedule: Q01DX001 (ip), vehicle: saline 100 % of control

C=CCSC(C)CC (stereo unspecified)
inactive: [7] 95 % of control | [8] 101 % of control | [4] 96 % of control | dose: 200.0 mg/kg/injection, schedule: Q01DX009 (ip), vehicle: saline with Tween-80 92 % of control | [6] 96 % of control

O=C(O)c1ccc(S(=O)(=O)c2ccc(C(=O)O)cc2)cc1
inactive: [17] 103 % of control | dose: 200.0 mg/kg/injection, schedule: Q04DX003 (ip), vehicle: Klucel (hydroxypropylcellulose) (HPC) 97 % of control | dose: 400.0 mg/kg/injection, schedule: Q04DX003 (ip), vehicle: Klucel (hydroxypropylcellulose) (HPC) 88 % of control

O=P(OCc1ccccc1)(N(CCCl)CCCl)N1CCCC1 (stereo unspecified)
inactive: dose: 16.0 mg/kg/injection, schedule: Q01DX Z (ip), vehicle: saline 92 % of control | dose: 32.0 mg/kg/injection, schedule: Q01DX Z (ip), vehicle: saline 90 % of control | dose: 64.0 mg/kg/injection, schedule: Q01DX Z (ip), vehicle: saline 101 % of control | dose: 128.0 mg/kg/injection, schedule: Q01DX Z (ip), vehicle: saline 106 % of control

COc1cc(N/C(N)=N\C(N)=NC(C)C)cc(OC)c1OC
inactive: dose: 50.0 mg/kg/injection, schedule: Q01DX009 (ip), vehicle: saline sonified 98 % of control | dose: 100.0 mg/kg/injection, schedule: Q01DX009 (ip), vehicle: saline sonified 101 % of control | [5] 104 % of control | dose: 200.0 mg/kg/injection, schedule: Q01DX009 (ip), vehicle: saline sonified 102 % of control | [16] 110 % of control
